Biological target: T1, ATP-citrate synthase (Homo sapiens, UniProt P53396)
T1 sequence (P53396 whole entry): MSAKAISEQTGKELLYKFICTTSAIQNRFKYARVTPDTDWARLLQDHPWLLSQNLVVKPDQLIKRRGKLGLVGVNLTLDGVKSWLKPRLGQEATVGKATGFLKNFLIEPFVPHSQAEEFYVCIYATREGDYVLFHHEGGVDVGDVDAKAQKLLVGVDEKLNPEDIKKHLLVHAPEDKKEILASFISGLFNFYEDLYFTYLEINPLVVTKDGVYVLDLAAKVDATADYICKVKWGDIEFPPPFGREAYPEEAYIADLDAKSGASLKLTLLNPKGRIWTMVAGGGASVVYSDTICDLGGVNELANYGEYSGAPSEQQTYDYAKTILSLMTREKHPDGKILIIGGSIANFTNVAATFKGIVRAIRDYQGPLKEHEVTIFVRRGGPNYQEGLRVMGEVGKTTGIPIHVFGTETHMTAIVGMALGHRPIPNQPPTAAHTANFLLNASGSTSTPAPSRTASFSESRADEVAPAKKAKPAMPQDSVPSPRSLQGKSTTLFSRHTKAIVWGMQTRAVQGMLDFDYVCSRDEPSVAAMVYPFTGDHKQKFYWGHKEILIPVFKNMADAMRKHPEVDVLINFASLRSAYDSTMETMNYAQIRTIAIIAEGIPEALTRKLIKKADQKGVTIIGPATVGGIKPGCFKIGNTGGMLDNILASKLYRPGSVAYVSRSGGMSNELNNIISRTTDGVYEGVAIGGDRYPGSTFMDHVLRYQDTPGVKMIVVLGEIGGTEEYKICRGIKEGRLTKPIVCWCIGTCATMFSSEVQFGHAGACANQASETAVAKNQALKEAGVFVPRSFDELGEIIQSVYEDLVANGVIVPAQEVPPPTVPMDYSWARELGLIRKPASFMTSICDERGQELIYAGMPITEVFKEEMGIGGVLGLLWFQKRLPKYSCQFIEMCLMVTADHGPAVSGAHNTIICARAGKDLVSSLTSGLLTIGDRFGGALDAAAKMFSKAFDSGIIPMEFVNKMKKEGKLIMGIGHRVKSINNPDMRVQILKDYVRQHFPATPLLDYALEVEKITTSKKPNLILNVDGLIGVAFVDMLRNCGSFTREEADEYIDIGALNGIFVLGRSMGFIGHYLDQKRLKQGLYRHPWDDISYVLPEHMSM
Assay: ACLY Enzyme Activity Assay
Protocol: Experimental method: ADP Glo luminescence method was used for determination. It reflects the activity of ACLY enzyme by quantitatively detecting the amount of ADP, and the enzymatic reaction catalyzed by ACLY is proportional to the amount of ADP detected by the luminescent signal. Firstly, the compound is diluted with 10% DMSO, and then […] of compound dilution is added to a 5 μl reaction system, so that the final reaction system has a DMSO content of 2%. The enzymatic reaction catalyzed by ACLY was carried out at 37° C. for 30 minutes. 5 μl reaction mixture contained the following components: 40 mM Tris, pH 8.0, 10 mM MgCl2, 5 mM DTT, ATP, CoA, sodium citrate, and ACLY. After the enzymatic reaction was complete, 2.5 μl of ADP Glo reagent was added to each reaction system and incubated at room temperature for 1 hour. Afterwards, 5 μl of kinase detection reagent was added and incubated at room temperature for 30 minutes. The luminous signal was detected using Envision (PerkinElmer, USA).

| Compound | IC50 [µM] |
| --- | --- |
| O=C(O)c1ccc(-c2ccc(N3CCN(C(=O)c4ccc(/C(=C/CCCCCCC5(C(=O)O)C=CCC5)CCCCCCC5(C(=O)O)C=CCC5)cc4)CC3)nc2)cc1 (stereo unspecified) [US20250011272, Example M39] | 1.3 |
| O=C(c1ccc(/C(=C/CCCCCCC2(C(=O)O)C=CCC2)CCCCCCC2(C(=O)O)C=CCC2)cc1)N1CCN(c2ccccn2)CC1 (stereo unspecified) [US20250011272, Example M38] | 0.76 |
| CC(CCCCCC/C=C/CCCCCCC(C)(C(=O)O)c1ccccc1)(C(=O)O)c1ccccc1 (stereo unspecified) [US20250011272, Example M16] | 4 |
| O=C(O)C1(CCCCCC/C=C/CCCCCCC2(C(=O)O)CCCCC2)CCCCC1 [US20250011272, Example M18] | 16.5 |
| O=C(c1ccc(/C(=C/CCCCCCC2(C(=O)O)C=CCC2)CCCCCCC2(C(=O)O)C=CCC2)cc1)N1CCN(c2ccccc2F)CC1 (stereo unspecified) [US20250011272, Example M40] | 1.69 |
| O=C(O)C1(CCCCCC/C=C/CCCCCCC2(C(=O)O)CC=CC2)CC=CC1 [US20250011272, Example M17] | 3.1 |

Source: BindingDB's records for patent US20250011272 (Shanghaiinstitute of Materia Medica, 2025)
